# Measured values as given in US10526316B2, “Quinoxaline and pyridopyrazine derivatives as PI3Kβ inhibitors” (Janssen Pharmaceutica NV, priority 2015, dated 2020).
# pIC50, pKd: −log10 of the molar value. Like-named read-outs stand apart in the source and are kept apart here.
# How the values were obtained:
# [1] = test system: Akt phosphorylated at Ser473 in PC-3 cells; test: Cellular assay: phosphorylation of Akt at Ser473 in PC-3 cells (MSD ELISA); type: cell-based; settings: PC-3 cells, 60 min compound incubation, MSD ELISA, read-out: IC50 pAkt_S473
# Summary of the method: (§1)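 Phospho-Akt in whole-cell lysates is quantified by electrochemiluminescent immunoassay using phospho-site capture and total-Akt detection antibodies.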
# PI3Kβ = molecular target: T1, PI3Kβ (Homo sapiens, UniProt P42338); test: Enzyme binding assay (KINOMEscan, DiscoveRx); settings: PIK3Cβ_h, read-out: Kd PIK3Cβ_h
# T1 construct: purchased DiscoveRx Corporation, San Diego (contract service, KINOMEscan)
# Summary of the method: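 Reported Kd (nM) reflects inhibitor binding to the kinase, as measured by KINOMEscan technology.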
# PI3Kδ = molecular target: T2, PI3Kδ (Homo sapiens, UniProt O00329); test: Enzyme binding assay (KINOMEscan, DiscoveRx); settings: PIK3Cδ_h
# T2 construct: purchased DiscoveRx Corporation, San Diego (contract service, KINOMEscan)
# T2 sequence (O00329 1-1044): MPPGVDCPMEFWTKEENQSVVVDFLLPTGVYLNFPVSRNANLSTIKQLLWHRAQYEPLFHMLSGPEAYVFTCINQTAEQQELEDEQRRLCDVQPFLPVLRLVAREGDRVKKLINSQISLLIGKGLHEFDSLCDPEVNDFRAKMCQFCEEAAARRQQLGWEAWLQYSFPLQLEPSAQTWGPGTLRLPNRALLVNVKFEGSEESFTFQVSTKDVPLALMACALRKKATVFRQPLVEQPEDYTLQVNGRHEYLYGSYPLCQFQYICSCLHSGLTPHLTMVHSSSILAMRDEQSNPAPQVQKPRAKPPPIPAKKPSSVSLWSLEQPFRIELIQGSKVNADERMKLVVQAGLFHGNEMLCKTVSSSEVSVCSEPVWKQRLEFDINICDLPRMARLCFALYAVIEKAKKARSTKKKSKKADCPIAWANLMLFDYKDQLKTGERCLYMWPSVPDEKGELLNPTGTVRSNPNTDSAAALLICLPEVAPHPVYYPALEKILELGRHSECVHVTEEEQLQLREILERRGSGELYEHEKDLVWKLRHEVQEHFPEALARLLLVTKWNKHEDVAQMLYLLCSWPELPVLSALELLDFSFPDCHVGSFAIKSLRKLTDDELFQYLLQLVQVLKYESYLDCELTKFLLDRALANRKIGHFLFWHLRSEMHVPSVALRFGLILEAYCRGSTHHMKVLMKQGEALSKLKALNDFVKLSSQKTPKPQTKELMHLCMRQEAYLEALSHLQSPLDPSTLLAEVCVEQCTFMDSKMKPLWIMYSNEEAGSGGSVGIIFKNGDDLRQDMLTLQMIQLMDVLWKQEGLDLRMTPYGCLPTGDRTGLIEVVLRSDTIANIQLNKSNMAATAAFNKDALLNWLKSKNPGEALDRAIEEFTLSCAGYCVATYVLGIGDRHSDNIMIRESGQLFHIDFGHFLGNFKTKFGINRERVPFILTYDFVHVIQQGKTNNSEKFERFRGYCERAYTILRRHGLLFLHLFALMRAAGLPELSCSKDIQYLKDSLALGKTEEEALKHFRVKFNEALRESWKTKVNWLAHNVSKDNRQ
# Summary of the method: (§2)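 Kinase binding measured via KINOMEscan, reported as affinity.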
# [2] = test system: Akt phosphorylated at Thr308 in PC-3 cells; test: Cellular assay: phosphorylation of Akt at Thr308 in PC-3 cells (MSD ELISA); type: cell-based; settings: PC-3 cells, 60 min compound incubation, MSD ELISA, read-out: IC50 pAkt_Thr308
# Summary of the method: as §1
# kinase enzymes [3] = molecular target: T3, kinase enzymes (Homo sapiens, UniProt P42336); test: Enzyme binding assay (KINOMEscan, DiscoveRx), further kinases of Table A; settings: PIK3Cα_h
# T3 construct: purchased DiscoveRx Corporation, San Diego (contract service, KINOMEscan)
# Summary of the method: as §2
# kinase enzymes [4] = molecular target: T4, kinase enzymes (Homo sapiens, UniProt P48736); test: as above; settings: PIK3Cγ_h
# T4 construct: purchased DiscoveRx Corporation, San Diego (contract service, KINOMEscan)
# Summary of the method: as §2
# kinase enzymes [5] = molecular target: T5, kinase enzymes (Homo sapiens, UniProt P42345); test: as above; settings: MTOR_h
# T5 construct: purchased DiscoveRx Corporation, San Diego (contract service, KINOMEscan)
# Summary of the method: as §2
# T4 sequence (P48736 whole entry): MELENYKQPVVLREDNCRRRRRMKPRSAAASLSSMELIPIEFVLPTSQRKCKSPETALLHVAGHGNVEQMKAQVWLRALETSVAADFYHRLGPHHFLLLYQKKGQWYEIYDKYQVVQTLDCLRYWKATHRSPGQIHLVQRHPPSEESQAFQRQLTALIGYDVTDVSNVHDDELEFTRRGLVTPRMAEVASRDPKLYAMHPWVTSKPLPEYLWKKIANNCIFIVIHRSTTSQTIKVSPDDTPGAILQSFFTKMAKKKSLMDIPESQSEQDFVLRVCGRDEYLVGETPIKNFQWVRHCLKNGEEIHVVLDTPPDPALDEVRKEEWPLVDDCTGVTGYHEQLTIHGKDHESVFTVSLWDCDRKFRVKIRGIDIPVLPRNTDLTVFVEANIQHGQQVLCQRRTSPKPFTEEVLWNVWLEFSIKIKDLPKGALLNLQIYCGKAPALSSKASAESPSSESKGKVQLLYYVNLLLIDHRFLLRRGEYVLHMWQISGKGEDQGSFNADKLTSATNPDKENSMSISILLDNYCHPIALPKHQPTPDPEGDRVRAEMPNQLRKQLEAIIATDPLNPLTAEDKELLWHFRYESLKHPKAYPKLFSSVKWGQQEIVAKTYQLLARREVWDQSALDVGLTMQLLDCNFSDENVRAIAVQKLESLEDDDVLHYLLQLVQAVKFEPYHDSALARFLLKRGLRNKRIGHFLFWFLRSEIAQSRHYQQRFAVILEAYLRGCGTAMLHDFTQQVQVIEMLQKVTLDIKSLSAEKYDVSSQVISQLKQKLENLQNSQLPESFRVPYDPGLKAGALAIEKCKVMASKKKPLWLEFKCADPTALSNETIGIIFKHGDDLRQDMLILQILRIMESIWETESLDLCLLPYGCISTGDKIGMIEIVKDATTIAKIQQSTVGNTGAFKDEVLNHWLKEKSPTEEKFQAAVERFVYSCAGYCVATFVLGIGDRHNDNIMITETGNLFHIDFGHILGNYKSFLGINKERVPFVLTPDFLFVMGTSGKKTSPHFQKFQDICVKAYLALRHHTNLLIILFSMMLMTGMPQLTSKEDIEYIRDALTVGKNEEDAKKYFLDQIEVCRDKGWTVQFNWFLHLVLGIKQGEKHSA
# T3 sequence (P42336 whole entry): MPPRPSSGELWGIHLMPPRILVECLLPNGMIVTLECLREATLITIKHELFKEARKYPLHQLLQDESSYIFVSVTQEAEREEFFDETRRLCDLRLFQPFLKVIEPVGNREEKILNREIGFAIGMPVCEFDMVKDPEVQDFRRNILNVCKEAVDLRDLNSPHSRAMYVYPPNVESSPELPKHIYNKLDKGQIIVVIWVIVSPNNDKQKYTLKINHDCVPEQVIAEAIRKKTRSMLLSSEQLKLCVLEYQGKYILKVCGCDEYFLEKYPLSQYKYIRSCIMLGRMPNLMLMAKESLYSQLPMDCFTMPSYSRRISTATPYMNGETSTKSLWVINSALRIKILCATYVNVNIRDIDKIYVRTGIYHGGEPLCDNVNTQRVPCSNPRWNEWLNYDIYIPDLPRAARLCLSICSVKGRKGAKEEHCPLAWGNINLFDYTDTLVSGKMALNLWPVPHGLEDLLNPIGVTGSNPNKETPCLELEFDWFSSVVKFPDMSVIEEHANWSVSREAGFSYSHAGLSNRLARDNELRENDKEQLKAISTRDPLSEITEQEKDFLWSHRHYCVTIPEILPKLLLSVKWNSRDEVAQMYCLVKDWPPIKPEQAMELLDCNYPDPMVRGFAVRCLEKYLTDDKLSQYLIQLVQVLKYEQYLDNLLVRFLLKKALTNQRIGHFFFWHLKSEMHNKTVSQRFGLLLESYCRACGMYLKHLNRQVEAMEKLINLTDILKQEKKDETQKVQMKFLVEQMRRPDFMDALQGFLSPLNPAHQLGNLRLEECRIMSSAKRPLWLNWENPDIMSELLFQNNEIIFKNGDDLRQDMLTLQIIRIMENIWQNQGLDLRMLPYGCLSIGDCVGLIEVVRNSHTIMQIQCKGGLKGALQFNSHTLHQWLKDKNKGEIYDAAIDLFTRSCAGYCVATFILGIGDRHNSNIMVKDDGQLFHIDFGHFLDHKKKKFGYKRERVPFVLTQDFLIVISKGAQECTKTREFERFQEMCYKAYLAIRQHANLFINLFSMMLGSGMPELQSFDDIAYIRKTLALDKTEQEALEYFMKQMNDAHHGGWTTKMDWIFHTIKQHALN
# T1 sequence (P42338 whole entry): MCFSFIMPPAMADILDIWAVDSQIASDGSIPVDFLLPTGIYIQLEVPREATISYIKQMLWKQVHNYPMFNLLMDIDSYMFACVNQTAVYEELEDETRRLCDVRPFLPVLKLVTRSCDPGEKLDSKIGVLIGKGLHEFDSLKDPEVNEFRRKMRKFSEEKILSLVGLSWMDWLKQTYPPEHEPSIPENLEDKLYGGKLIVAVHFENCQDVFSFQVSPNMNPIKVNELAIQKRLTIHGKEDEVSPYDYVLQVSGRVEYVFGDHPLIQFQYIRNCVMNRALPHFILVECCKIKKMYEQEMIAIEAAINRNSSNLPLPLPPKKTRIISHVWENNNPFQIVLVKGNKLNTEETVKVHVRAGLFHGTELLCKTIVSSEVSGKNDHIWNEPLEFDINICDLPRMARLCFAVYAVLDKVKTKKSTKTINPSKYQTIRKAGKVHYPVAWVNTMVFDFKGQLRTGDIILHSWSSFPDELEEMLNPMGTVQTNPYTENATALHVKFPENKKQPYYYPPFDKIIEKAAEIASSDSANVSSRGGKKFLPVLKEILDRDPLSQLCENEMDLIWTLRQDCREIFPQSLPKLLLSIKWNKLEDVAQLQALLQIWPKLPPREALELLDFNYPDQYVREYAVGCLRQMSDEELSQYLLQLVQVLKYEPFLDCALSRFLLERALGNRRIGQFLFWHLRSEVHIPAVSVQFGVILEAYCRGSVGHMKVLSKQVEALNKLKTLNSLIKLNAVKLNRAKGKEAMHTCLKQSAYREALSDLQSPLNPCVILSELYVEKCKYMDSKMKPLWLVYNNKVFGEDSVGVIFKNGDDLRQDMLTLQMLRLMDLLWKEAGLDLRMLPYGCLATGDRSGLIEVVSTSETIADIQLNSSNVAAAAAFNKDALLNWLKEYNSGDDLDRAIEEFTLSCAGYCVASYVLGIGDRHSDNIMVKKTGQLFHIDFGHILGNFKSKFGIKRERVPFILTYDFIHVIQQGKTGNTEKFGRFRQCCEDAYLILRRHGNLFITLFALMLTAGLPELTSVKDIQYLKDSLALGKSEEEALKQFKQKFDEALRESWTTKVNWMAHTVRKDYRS
"pIC50 ([1]; Homo sapiens, PC-3, 1 h)",pKd (PI3Kβ),melting point [°C],pKd (PI3Kδ),"pIC50 ([2]; Homo sapiens, PC-3, 1 h)",pKd (kinase enzymes [3]),pKd (kinase enzymes [4]),pKd (kinase enzymes [5]),pIC50 [1],pIC50 [2],Compound
< 6.29,7.55,80,6.14,~6.34,5.61,4.83,< 4.52,–,–,C[C@H](CO)NCc1cc(F)cc(N2CCCC2c2cc(C(=O)N(C)C)cc3ncc(N4CCOCC4)nc23)c1 (mixture of isomers) [Compound 48]
< 6.29,7.89,55,5.58,6.83,5.18,< 4.52,< 4.52,–,–,CC(Oc1cc(F)cc(F)c1)c1cc(C(=O)N2CCOCC2)cc2ncc(N3CCO[C@H](C)C3)nc12 (mixture of isomers) [Compound 56]
7.89,9.00,80,7.24,8.22,6.65,5.89,4.82,–,–,O=C(c1cc(C2CCCN2c2cc(F)cc(F)c2)c2nc(N3CCOCC3)cnc2c1)N1CCC[C@H]1CO (mixture of isomers) [Compound 64]
6.71,7.74,80,6.21,6.78,5.61,4.68,< 4.52,–,–,C[C@H](CO)NCc1ccc(F)cc1N1CCCC1c1cc(C(=O)N(C)C)cc2ncc(N3CCOCC3)nc12 (mixture of isomers) [Compound 67]
7.70,9.00,80,6.93,7.89,5.68,5.54,< 4.52,–,–,CN[C@H]1CCN(C(=O)c2cc(C(C)Nc3ccc(F)c(F)c3)c3nc(N4CCOCC4)cnc3c2)C1 (mixture of isomers) [Compound 365]
–,9.00,100,6.96,–,6.40,5.41,4.68,7.60,7.70,"CC(Nc1cc(F)cc(F)c1)c1cc(C(=O)N2CCOCC2)cc2ncc(N3CCOCC3)nc12 (single isomer, unassigned) [Compound 8]"
–,9.40,218,7.12,–,6.56,5.94,4.58,7.74,8.05,"CC(Nc1cc(F)cc(F)c1)c1cc(C(=O)N(C)C)cc2ncc(N3CCOCC3)nc12 (single isomer, unassigned) [Compound 12]"
–,6.74,217,5.23,–,4.62,< 4.52,< 4.52,< 6.29,< 6.29,"CC(Nc1cc(F)cc(F)c1)c1cc(C(=O)N(C)C)cc2ncc(N3CCOCC3)nc12 (single isomer, unassigned) [Compound 13]"
~8.52,10.00,170,8.52,9.00,7.60,6.97,4.91,–,–,"CNCCNC(=O)c1cc(C2CCCN2c2cc(F)cc(F)c2)c2nc(N3CCOCC3)cnc2c1 (single isomer, unassigned) [Compound 17]"
6.29,7.20,184,5.65,~6.30,5.32,4.80,4.70,–,–,"CC(Oc1cc(F)cc(F)c1)c1cc(-c2cnc[nH]2)cc2ncc(N3CCOCC3)nc12 (single isomer, unassigned) [Compound 21]"
–,5.25,183,4.73,–,4.82,< 4.52,4.66,< 6.29,< 6.29,"CC(Oc1cc(F)cc(F)c1)c1cc(-c2cnc[nH]2)cc2ncc(N3CCOCC3)nc12 (single isomer, unassigned) [Compound 22]"
–,9.00,100,6.61,–,6.52,6.43,4.73,7.44,7.52,"Fc1cc(F)cc(N2CCCC2c2cncc3ncc(N4CCOCC4)nc23)c1 (single isomer, unassigned) [Compound 24]"
–,7.43,98,5.33,–,4.91,4.89,< 4.52,< 6.29,< 6.29,"Fc1cc(F)cc(N2CCCC2c2cncc3ncc(N4CCOCC4)nc23)c1 (single isomer, unassigned) [Compound 25]"
–,< 4.49,213,< 4.49,–,< 4.49,< 4.49,< 4.49,< 6.29,< 6.29,"COC(=O)c1cc(C2CCCN2c2cc(F)cc(F)c2)c2nc(N3CCOCC3)cnc2c1 (single isomer, unassigned) [Compound 31]"
–,9.00,280,7.33,–,7.24,6.41,< 4.52,8.52,8.40,"O=C(c1cc(C2CCCN2c2cc(F)cc(F)c2)c2nc(N3CCOCC3)cnc2c1)N1CCC1 (single isomer, unassigned) [Compound 33]"
–,7.70,276,5.54,–,5.21,< 4.52,< 4.52,6.70,6.90,"O=C(c1cc(C2CCCN2c2cc(F)cc(F)c2)c2nc(N3CCOCC3)cnc2c1)N1CCC1 (single isomer, unassigned) [Compound 37]"
–,9.40,146,8.22,–,8.52,6.03,< 4.52,~9.10,9.00,"O=C(c1cc(C2CCCN2c2cc(F)cc(F)c2)c2nc(N3CCOCC3)cnc2c1)N1CCS(=O)(=O)CC1 (single isomer, unassigned) [Compound 38]"
8.15,9.00,80,7.46,8.40,7.25,6.51,4.76,–,–,"CNC(=O)c1cc(C2CCCN2c2cc(F)cc(F)c2)c2nc(N3CCOCC3)cnc2c1 (single isomer, unassigned) [Compound 40]"
–,6.50,80,5.14,–,5.33,5.96,< 4.52,< 6.29,6.48,"O=C(c1cc(C2CCCN2c2cc(F)cc(F)c2)c2nc(N3CCOCC3)cnc2c1)N1CCS(=O)(=O)CC1 (single isomer, unassigned) [Compound 43]"
8.52,9.70,80,7.49,8.40,7.39,6.12,4.83,–,–,"O=C(c1cc(C2CCCN2c2cc(F)cc(F)c2)c2nc(N3CCOCC3)cnc2c1)N1CC2(COC2)C1 (single isomer, unassigned) [Compound 47]"
–,9.40,80,7.51,–,7.31,6.28,4.60,~8.30,8.40,"CN1CCN(C(=O)c2cc(C3CCCN3c3cc(F)cc(F)c3)c3nc(N4CCOCC4)cnc3c2)CC1 (single isomer, unassigned) [Compound 57]"
